# Article PMC12897534, “Design, synthesis, and antiproliferative activity of new 5-ethylsulfonyl-indazole-3-carbohydrazides as dual EGFR/VEGFR-2 kinases inhibitors” (Journal of Enzyme Inhibition and Medicinal Chemistry, 2025)
# “And” between values parts separate entries of the source, which are not always exact repeats. Identical values can stand only once.
# Key:
# [1] = tested on: MCF-7 (breast) cancer cell line; assay: Antiproliferative assay, MCF-7; format: cell-based, human; conditions: Homo sapiens, MCF7; read-out: Antiproliferative activity IC50 ± SEM, MCF-7
# Experimental: (§1) Table 1 presents the median inhibitory concentration (IC50) and GI50 (mean IC50) for the four cancer cell lines.
# (§2) Refer to Appendix A for additional information.
# (§3) To explore the antiproliferative potential of compounds propidium iodide fluorescence assay was performed using different cell lines such as Panc-1 (pancreas cancer cell line) [Panc-1-CTC (RRID:CVCL_VQ69)], MCF-7 (breast cancer cell line) [MCF-7 (RRID:CVCL_0031)], HT-29 (colon cancer cell line) [HT-29 (RRID:CVCL_0320)] and A-549 (epithelial cancer cell line)[A-549 (RRID:CVCL_0023)], respectively. All cell lines were obtained from ATCC (American Type Cell Culture).
# (§4) To calculate the total nuclear DNA, a fluorescent dye (propidium iodide, PI) is used which can attach to the DNA, thus offering a quick and precise technique. PI cannot pass through the cell membrane and its signal intensity can be considered as directly proportional to quantity of cellular DNA. Cells whose cell membranes are damaged or have changed permeability are counted as dead ones. The assay was performed by seeding the cells of different cell lines at a density of 3000-7500 cells/well (in 200 μl medium) in culture plates followed by incubation for 24 h at 37 °C in humidified 5% CO2 /95% air atmospheric conditions. The medium was removed; the compounds were added to the plates at 10 μM concentrations (in 0.1% DMSO) in triplicates, followed by incubation for 48 h. DMSO (0.1%) was used as control. After incubation, medium was removed followed by the addition of PI (25 μl, 50 μg/mL in water/medium) to each well of the plates. At -80 °C, the plates were allowed to freeze for 24 h, followed by thawing at 25 °C. A fluorometer (Polar-Star BMG Tech) was used to record the readings at excitation and emission wavelengths of 530 and 620 nm for each well. The percentage cytotoxicity of compounds was calculated using the following formula: […]
# [2] = tested on: Panc-1 (pancreatic) cancer cell line; assay: Antiproliferative assay, Panc-1; format: cell-based, human; conditions: Homo sapiens, PANC-1; read-out: Antiproliferative activity IC50 ± SEM, Panc-1
# Experimental: as §1, §2, §3, §4
# [3] = tested on: four cancer cell lines (A-549, MCF-7, Panc-1, HT-29); assay: Antiproliferative assay, mean over the four cancer cell lines (GI50); format: cell-based, human; conditions: for IC50: Homo sapiens, mean IC50 of A-549, MCF-7, Panc-1, HT-29
# Description: as §1, §2
# All cell lines were obtained from ATCC (American Type Cell Culture). […]
# [4] = tested on: A-549 (lung) cancer cell line; assay: Antiproliferative assay, A-549; format: cell-based, human; conditions: Homo sapiens, A549; read-out: Antiproliferative activity IC50 ± SEM, A-549
# Experimental: as §1, §2, §3, §4
# [5] = tested on: HT-29 (colon) cancer cell line; assay: Antiproliferative assay, HT-29; format: cell-based, human; conditions: Homo sapiens, read-out: Antiproliferative activity IC50 ± SEM, HT-29
# Experimental: as §1, §2, §3, §4
# [6] = Cell viability assay (MTT) on normal cell line; conditions: human, MCF-10A normal mammary gland epithelial cells
# Experimental: The viability of the investigated compounds was assessed using the normal human mammary gland epithelial cell line MCF-10A. After four days of incubation on MCF-10A cells with 50 µM of each examined compound, cell viability was assessed using the MTT test[46]^,[47].
# The viability of 7a–o was determined using the normal human mammary gland epithelial (MCF-10A) cell line^46,[47].
# MTT assay was performed to investigate the effect of the synthesized compounds on mammary epithelial cells (MCF-10A). The cells were propagated in medium consisting of Ham's F-12 medium/ Dulbecco's modified Eagle's medium (DMEM) (1:1) supplemented with 10% foetal calf serum (GIBCO, UK), 2 mM glutamine, insulin (10 μg/mL), hydrocortisone (500 ng/mL) and epidermal growth factor (20 ng/mL). Trypsin ethylenediamine tetra acetic acid (EDTA) was used to passage the cells after every 2-3 days. 96-well flat-bottomed cell culture plates were used to seed the cells at a density of 10^4 cells mL^-1. The medium was aspirated from all the wells of culture plates after 24 h followed by the addition of synthesized compounds (in 200 μL medium to yield a final concentration of 0.1% (v/v) dimethyl sulfoxide) into individual wells of the plates. Four wells were designated to a single compound. The plates were allowed to incubate at 37°C for 96 h. Afterwards, the medium was aspirated and 3-[4,5-dimethylthiazol-2-yl]-2,5-diphenyltetrazolium bromide (MTT) (0.4 mg/mL) in medium was added to each well and subsequently incubated for 3 h. The medium was aspirated and 150 μL dimethyl sulfoxide (DMSO) was added to each well. The plates were vortexed followed by the measurement of absorbance at 540 nm on a microplate reader.
# [7] = biological target: VEGFR-2 (Homo sapiens, UniProt P35968); assay: VEGFR-2 kinase inhibitory assay
# Sequence of VEGFR-2 (P35968 20-1356): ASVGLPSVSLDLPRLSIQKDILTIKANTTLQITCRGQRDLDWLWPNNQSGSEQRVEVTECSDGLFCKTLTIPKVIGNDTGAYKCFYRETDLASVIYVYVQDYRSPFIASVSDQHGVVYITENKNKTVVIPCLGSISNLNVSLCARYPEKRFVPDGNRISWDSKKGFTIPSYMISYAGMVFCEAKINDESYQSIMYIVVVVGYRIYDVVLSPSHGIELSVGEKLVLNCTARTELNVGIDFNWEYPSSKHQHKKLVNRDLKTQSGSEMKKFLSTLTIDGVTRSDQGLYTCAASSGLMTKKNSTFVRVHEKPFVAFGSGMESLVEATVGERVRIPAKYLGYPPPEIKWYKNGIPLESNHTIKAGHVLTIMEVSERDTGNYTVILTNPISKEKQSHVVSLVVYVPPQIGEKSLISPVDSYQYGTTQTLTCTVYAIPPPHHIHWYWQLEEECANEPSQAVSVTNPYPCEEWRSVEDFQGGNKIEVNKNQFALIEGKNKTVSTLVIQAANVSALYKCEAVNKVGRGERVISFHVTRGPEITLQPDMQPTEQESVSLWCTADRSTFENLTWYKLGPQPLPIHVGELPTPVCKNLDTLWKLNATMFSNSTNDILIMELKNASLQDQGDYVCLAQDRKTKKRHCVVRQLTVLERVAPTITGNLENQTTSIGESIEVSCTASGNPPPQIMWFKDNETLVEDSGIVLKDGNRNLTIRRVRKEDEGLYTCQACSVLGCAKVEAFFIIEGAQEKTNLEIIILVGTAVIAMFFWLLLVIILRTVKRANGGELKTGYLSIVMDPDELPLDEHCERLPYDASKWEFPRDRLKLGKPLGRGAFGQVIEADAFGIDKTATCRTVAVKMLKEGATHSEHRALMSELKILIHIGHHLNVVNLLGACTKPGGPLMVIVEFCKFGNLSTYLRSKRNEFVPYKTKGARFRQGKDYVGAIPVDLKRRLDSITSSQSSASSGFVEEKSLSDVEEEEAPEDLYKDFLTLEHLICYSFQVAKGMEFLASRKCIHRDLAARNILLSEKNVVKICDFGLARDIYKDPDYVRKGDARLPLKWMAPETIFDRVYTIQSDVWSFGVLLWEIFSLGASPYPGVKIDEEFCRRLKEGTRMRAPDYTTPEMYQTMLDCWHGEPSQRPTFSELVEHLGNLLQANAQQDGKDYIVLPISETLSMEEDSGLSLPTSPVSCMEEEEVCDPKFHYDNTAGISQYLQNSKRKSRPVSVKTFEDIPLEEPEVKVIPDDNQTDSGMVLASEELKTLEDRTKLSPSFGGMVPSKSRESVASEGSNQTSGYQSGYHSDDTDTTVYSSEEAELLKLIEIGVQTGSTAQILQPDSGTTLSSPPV
# Experimental: Prepare all the solutions using autoclaved, deionized water and analytical grade reagents. Prepare and store all the reagents at room temperature (unless indicated otherwise). […] The assays used an ULight-labeled peptide substrate and a Europium-W1024-labeled antiphosphotyrosine antibody. The VEGFR-2 was purchased from Carna Biosciences, Inc. (New York, USA). The 384-well plates were obtained from PerkinElmer. […] Negative control: 2.5 μL/well 4×substrate/ATP mixture and 7.5 μL 1×kinase assay buffer in 384-well plate well. […] After incubation at room temperature and dark for 60 min, 5 μL 4×stop solution was added to corresponding wells to react for 5 min and then 5 μL 4×detection mix was added to the corresponding wells of a 384-well plate. The mixture was centrifugally mixed and stayed for 60 min at room temperature for color development. The plate was read using an Envision plate reader. The inhibition rate (%) = (positive well reading-compound well reading)/(positive well reading-negative well reading)×100. The corresponding IC50 values were calculated using GraphPad Prism 5.0.
# [8] = biological target: EGFR (Homo sapiens, UniProt P00533); assay: EGFR-TK inhibitory assay; conditions: EGFR inhibition IC50 ± SEM
# Sequence of EGFR (P00533 669-1210): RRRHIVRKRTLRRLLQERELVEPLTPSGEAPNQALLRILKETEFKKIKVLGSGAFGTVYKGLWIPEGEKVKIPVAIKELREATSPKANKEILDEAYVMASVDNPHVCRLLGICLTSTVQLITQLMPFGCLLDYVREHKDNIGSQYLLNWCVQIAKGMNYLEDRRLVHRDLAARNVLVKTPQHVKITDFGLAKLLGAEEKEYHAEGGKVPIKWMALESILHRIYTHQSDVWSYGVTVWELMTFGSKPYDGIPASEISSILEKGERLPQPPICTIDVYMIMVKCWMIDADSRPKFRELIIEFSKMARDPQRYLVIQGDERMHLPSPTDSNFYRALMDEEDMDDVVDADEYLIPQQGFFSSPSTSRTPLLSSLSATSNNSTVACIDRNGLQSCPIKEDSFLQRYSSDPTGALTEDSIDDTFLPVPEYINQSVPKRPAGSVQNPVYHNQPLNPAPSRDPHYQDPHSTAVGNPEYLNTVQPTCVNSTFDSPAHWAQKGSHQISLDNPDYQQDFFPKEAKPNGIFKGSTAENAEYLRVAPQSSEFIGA
# Experimental: To record autophosphorylation level, EGFR kinase assay was carried out on the basis of DELFIA/Time-Resolved Fluorometry. […] Each compound (10 μL) was incubated with recombinant enzyme (10 μL, 5 ng for EGFR, 1:80 dilution in 100 mM HEPES) for 10 min at 25 °C, subsequent to the addition of 5X buffer (10 μL, containing 2 mM MnCl2, 100 μM Na3VO4, 20 mM HEPES and 1 mM DTT) and ATP-MgCl2 (20 μL, containing 0.1 mM ATP and 50 mM MgCl2) and incubation for 1h. The negative and positive controls were included in each plate by the incubation of enzyme either with or without ATP-MgCl2. The liquid was removed after incubation and the plates were washed thrice using a wash buffer. The Europium-tagged antiphosphotyrosine antibody (75 μL, 400 ng) was added to each well followed by incubation of 1h and then washing of the plates using buffer. […] The autophosphorylation percentage inhibition by compounds was calculated using the following equation:
# The majority of signals detected by antiphosphotyrosine antibody were from EGFR because the enzyme preparation contained low impurities.
smiles,measurement,setting,value
"CCS(=O)(=O)c1ccc2[nH]nc(C(=O)N/N=C/c3ccc(C#N)cc3)c2c1 [Compound 7a, (E)-N′-(4-Cyanobenzylidene)-5-(ethylsulfonyl)-1H-indazole-3-carbohydrazide]",IC50,[1],79 ± 6 nM
same,IC50,[2],77 ± 6 nM
same,Fold less potent than 7 g (GI50),[3]; GI50 ratio to 7 g,2.1 fold
same,Fold less potent than 7i (GI50),[3]; GI50 ratio to 7i,2.4 fold
same,Fold less potent than 7 l (GI50),[3]; GI50 ratio to 7 l,1.9 fold
same,IC50,[3],78 nM
same,IC50,[4],77 ± 6 nM
same,IC50,[5],78 ± 6 nM
same,"viability at 96 h, 50 µM",[6],94%
"CCS(=O)(=O)c1ccc2[nH]nc(C(=O)N/N=C/c3cccnc3)c2c1 [Compound 7b, (E)-5-(ethylsulfonyl)-N′-(pyridin-3-ylmethylene)-1H-indazole-3-carbohydrazide]",IC50,[1],50 ± 4 nM
same,IC50,[2],48 ± 3 nM
same,IC50,[3],48 nM
same,IC50,[4],47 ± 3 nM
same,IC50,[5],48 ± 3 nM
same,"viability at 96 h, 50 µM",[6],92%
"CCS(=O)(=O)c1ccc2[nH]nc(C(=O)N/N=C/c3ccc4c(cnn4C)c3)c2c1 [Compound 7c, (E)-5-(ethylsulfonyl)-N′-((1-methyl-1H-indazol-5-yl)methylene)-1H-indazole-3-carbohydrazide]",IC50,[1],59 ± 4 nM
same,IC50,[2],58 ± 4 nM
same,IC50,[3],58 nM
same,IC50,[4],56 ± 4 nM
same,IC50,[5],58 ± 4 nM
same,"viability at 96 h, 50 µM",[6],91%
"CCS(=O)(=O)c1ccc2[nH]nc(C(=O)N/N=C/c3ccc4ncccc4c3)c2c1 [Compound 7d, (E)-5-(ethylsulfonyl)-N′-(quinolin-6-ylmethylene)-1H-indazole-3-carbohydrazide]",IC50,[1],55 ± 4 nM
same,IC50,[2],54 ± 4 nM
same,IC50,[3],54 nM
same,IC50,[4],53 ± 4 nM
same,IC50,[5],54 ± 4 nM
same,"viability at 96 h, 50 µM",[6],92%
"CCS(=O)(=O)c1ccc2[nH]nc(C(=O)N/N=C/c3nccs3)c2c1 [Compound 7e, (E)-5-(ethylsulfonyl)-N′-(thiazol-2-ylmethylene)-1H-indazole-3-carbohydrazide]",IC50,[1],61 ± 5 nM
same,IC50,[2],60 ± 5 nM
same,Fold less potent than 7j (GI50),[3]; GI50 ratio to 7j,2.3 fold
same,IC50,[3],60 nM
same,IC50,[4],58 ± 4 nM
same,IC50,[5],60 ± 5 nM
same,"viability at 96 h, 50 µM",[6],94%
"CCS(=O)(=O)c1ccc2[nH]nc(C(=O)N/N=C/c3ccc4c(ccn4C)c3)c2c1 [Compound 7f, (E)-5-(ethylsulfonyl)-N′-((1-methyl-1H-indol-5-yl)methylene)-1H-indazole-3-carbohydrazide]",IC50,[1],75 ± 6 nM
same,IC50,[2],73 ± 6 nM
same,IC50,[3],73 nM
same,IC50,[4],71 ± 6 nM
same,IC50,[5],72 ± 6 nM
same,"viability at 96 h, 50 µM",[6],92%
"CCS(=O)(=O)c1ccc2[nH]nc(C(=O)N/N=C/c3ccc(OC)c(O)c3)c2c1 [Compound 7g, (E)-5-(ethylsulfonyl)-N′-(3-hydroxy-4-methoxybenzylidene)-1H-indazole-3-carbohydrazide]",IC50,[1],38 ± 2 nM
same,IC50,[7],39 ± 2 nM
same,IC50,[2],36 ± 2 nM
same,IC50,[3],36 nM
same,IC50,[4],35 ± 2 nM
same,IC50,[5],36 ± 2 nM
same,"viability at 96 h, 50 µM",[6],91%
same,IC50,[8],81 nM and 83 nM
"CCS(=O)(=O)c1ccc2[nH]nc(C(=O)N/N=C/c3cncnc3)c2c1 [Compound 7h, (E)-5-(ethylsulfonyl)-N′-(pyrimidin-5-ylmethylene)-1H-indazole-3-carbohydrazide]",IC50,[1],70 ± 6 nM
same,IC50,[2],68 ± 5 nM
same,IC50,[3],68 nM
same,IC50,[4],67 ± 5 nM
same,IC50,[5],68 ± 5 nM
same,"viability at 96 h, 50 µM",[6],93%
"CCS(=O)(=O)c1ccc2[nH]nc(C(=O)N/N=C/c3ccc(O)cc3)c2c1 [Compound 7i, (E)-5-(ethylsulfonyl)-N′-(4-hydroxybenzylidene)-1H-indazole-3-carbohydrazide]",IC50,[1],34 ± 2 nM
same,IC50,[7],36 ± 2 nM
same,IC50,[2],32 ± 2 nM
same,IC50,[3],32 nM
same,IC50,[4],31 ± 2 nM
same,IC50,[5],32 ± 2 nM
same,"viability at 96 h, 50 µM",[6],92%
same,IC50,[8],83 nM and 81 nM
"CCS(=O)(=O)c1ccc2[nH]nc(C(=O)N/N=C/C3CC3)c2c1 [Compound 7m, (E)-N′-(cyclopropylmethylene)-5-(ethylsulfonyl)-1H-indazole-3-carbohydrazide]",IC50,[1],52 ± 4 nM
same,IC50,[2],50 ± 4 nM
same,IC50,[3],50 nM
same,IC50,[4],49 ± 3 nM
same,IC50,[5],50 ± 4 nM
same,"viability at 96 h, 50 µM",[6],94%
"CCS(=O)(=O)c1ccc2[nH]nc(C(=O)N/N=C/C3CCCC3)c2c1 [Compound 7n, (E)-N′-(cyclopentylmethylene)-5-(ethylsulfonyl)-1H-indazole-3-carbohydrazide]",IC50,[1],66 ± 5 nM
same,IC50,[2],64 ± 5 nM
same,IC50,[3],64 nM
same,IC50,[4],63 ± 5 nM
same,IC50,[5],64 ± 5 nM
same,"viability at 96 h, 50 µM",[6],90%
"C#Cc1cccc(Nc2ncnc3cc(OCCOC)c(OCCOC)cc23)c1 [Erlotinib, reference compound]",IC50,[1],40 ± 3 nM
same,IC50,[2],30 ± 3 nM
same,IC50,[4],30 ± 3 nM
same,IC50,[5],30 ± 3 nM
